Laboratory results reported in the NIST ThermoML archive (doi:10.1016/j.jct.2006.03.014).

Test: xn = mol fraction of the nth substance listed
Details: 101 kPa, Liquid; for viscosity: Capillary tube (Ostwald / Ubbelohde) method; for mass density: Pycnometric method

CC1OC(C)OC(C)O1 (stereo unspecified) [2,4,6-trimethyl-1,3,5-trioxane] + CCCCOC(C)=O
Details	mass density, 298.15 K [kg/m3]	mass density, 303.15 K [kg/m3]	mass density, 308.15 K [kg/m3]	viscosity, 298.15 K [mPa·s]	viscosity, 303.15 K [mPa·s]	viscosity, 308.15 K [mPa·s]
x1 = 0.0186	878.3	873.2	868.2	0.688	0.637	0.581
x1 = 0.0368	880.3	875.1	870.1	0.693	0.641	0.586
x1 = 0.0556	882.3	877.1	872	0.696	0.646	0.588
x1 = 0.0744	884.3	879.1	874	0.697	0.65	0.592
x1 = 0.093	886.3	881	875.9	0.699	0.653	0.594
x1 = 0.1873	896.5	891.1	885.7	0.713	0.668	0.612
x1 = 0.2831	906.9	901.4	895.9	0.728	0.685	0.629
x1 = 0.3807	917.7	912	906.4	0.755	0.706	0.649
x1 = 0.4799	928.6	922.9	917.2	0.786	0.735	0.676
x1 = 0.5802	939.8	934.1	928.2	0.831	0.771	0.708
x1 = 0.6828	951.5	945.7	939.7	0.882	0.816	0.746
x1 = 0.7863	963.2	957.6	951.4	0.945	0.867	0.793
x1 = 0.8924	975.6	969.9	963.7	1.025	0.933	0.848
x1 = 1	988.4	982.6	976.4	1.107	1.001	0.907

CC1OC(C)OC(C)O1 (stereo unspecified) [2,4,6-trimethyl-1,3,5-trioxane] + CCOC(C)=O
Details	mass density, 298.15 K [kg/m3]	mass density, 303.15 K [kg/m3]	mass density, 308.15 K [kg/m3]	viscosity, 298.15 K [mPa·s]	viscosity, 303.15 K [mPa·s]	viscosity, 308.15 K [mPa·s]
x1 = 0.0203	896.3	890	883.7	0.435	0.405	0.392
x1 = 0.04	898.7	892.4	886	0.439	0.411	0.395
x1 = 0.0601	901.1	894.8	888.5	0.446	0.419	0.4
x1 = 0.0799	903.5	897.2	890.8	0.451	0.421	0.407
x1 = 0.1002	905.8	899.6	893.2	0.457	0.428	0.412
x1 = 0.1957	916.6	910.4	904	0.491	0.455	0.439
x1 = 0.3	927.8	921.6	915.2	0.53	0.492	0.468
x1 = 0.4	937.9	931.8	925.4	0.567	0.53	0.503
x1 = 0.5001	947.4	941.3	935	0.61	0.574	0.539
x1 = 0.6001	956.4	950.4	944.1	0.663	0.628	0.586
x1 = 0.7	965	959	952.7	0.739	0.691	0.639
x1 = 0.8001	973.1	967.3	960.9	0.832	0.766	0.708
x1 = 0.9	980.9	975.1	968.8	0.947	0.861	0.789
x1 = 1	988.4	982.6	976.4	1.107	1.001	0.907

CC1OC(C)OC(C)O1 (stereo unspecified) [2,4,6-trimethyl-1,3,5-trioxane] + COC(C)=O
Details	mass density, 298.15 K [kg/m3]	mass density, 303.15 K [kg/m3]	mass density, 308.15 K [kg/m3]	viscosity, 298.15 K [mPa·s]	viscosity, 303.15 K [mPa·s]	viscosity, 308.15 K [mPa·s]
x1 = 0.0203	928.4	921.5	918	0.378	0.359	0.345
x1 = 0.0405	930.1	923.3	919.7	0.388	0.367	0.35
x1 = 0.0601	931.8	925	921.4	0.398	0.373	0.355
x1 = 0.0807	933.4	926.7	923.1	0.408	0.38	0.359
x1 = 0.1002	935	928.4	924.7	0.416	0.386	0.362
x1 = 0.201	942.9	936.6	932.6	0.455	0.41	0.372
x1 = 0.3009	950.3	944.2	939.8	0.489	0.429	0.374
x1 = 0.397	956.9	951	946.3	0.522	0.45	0.377
x1 = 0.5001	963.5	957.7	952.7	0.566	0.481	0.39
x1 = 0.7002	974.8	969.1	963.5	0.696	0.593	0.479
x1 = 0.8005	979.8	974	968.2	0.795	0.688	0.57
x1 = 0.9001	984.3	978.5	972.5	0.925	0.816	0.704
x1 = 1	988.4	982.6	976.4	1.107	1.001	0.907
